What all share (assay type): nucleic-acid assay
Assay [1] concerns Nucleic Acid. In words: The binding constants against calf thymus DNA. The note with it: Bos taurus.
For assay [2], the system named is Nucleic Acid. In words: The binding constants against T4 coliphage DNA.
Assay [3] relates to Nucleic Acid. Kind of assay: The binding constants against poly(dA-dT) DNA.
The test system of assay [4] is Nucleic Acid. In words: The binding constants against […] DNA.

Consider `Cn1cc(NC(=O)c2cc(NC(=O)CNC(=N)N)cn2C)cc1C(=O)NCCC(=N)N`, for which the Ka in the assay with Nucleic Acid [1] worked out at 1.87e+06 M⁻¹.
With `CN(C)CCn1cc(NC(=O)c2nc(NC=O)cn2C)nc1C(N)=O`, the Ka was determined as 137000 M⁻¹ with Nucleic Acid [1], 19000 M⁻¹ in the assay with Nucleic Acid [2], 65000 M⁻¹ in the assay on Nucleic Acid [3] and 105000 M⁻¹ with Nucleic Acid [4].

The record behind these values is ChEMBL document CHEMBL1127416, “GC sequence specific recognition by an N-formamido, C-terminus-modified and imidazole-containing analogue of netropsin” (J Med Chem, 1994).
